Consider 19 compounds from US11071731B2, “Allosteric modulators of the mu opioid receptor” (Chiromics, LLC, priority 2017, dated 2021).

Some results are limits rather than exact numbers.

For assay [1], the target named is T1, mu opioid receptor (MOR) (Homo sapiens, UniProt P35372). In words: PathHunter β-arrestin recruitment assay, PAM mode with EC20 endomorphin-1. It counts as cell-based. As to conditions: for allosteric activity for β-arrestin recruitment: EC20 endomorphin-1 concentration of 4.5 nM. An outline of the steps:
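β-Arrestin recruitment to the receptor was tracked by chemiluminescent β-galactosidase activity from complementing fragments (ED on receptor, EA on β-arrestin). Per-compound outputs were EC50 and percent maximal response.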
(Activated receptors often draw arrestin, which recruitment assays turn into a signal.)

Assay [2] concerns the target T1, mu opioid receptor (MOR). As to the kind of experiment: Hit Hunter cAMP signaling assay (adenylyl cyclase inhibition), PAM mode with EC20 endomorphin-1. As to conditions: for allosteric activity for cAMP signaling: EC20 endomorphin-1 concentration of 0.45 nM; for Max. Response: cAMP. The class given is cell-based.
Assay [3] addresses mu opioid receptor subtype OPRM1 (Homo sapiens, UniProt P35372). As to the kind of experiment: β-arrestin recruitment assay, antagonist format. It counts as cell-based. To be noted: Table 18. On the procedure: Beta-Arrestin Pathway: The PathHunter β-arrestin assay monitors the activation of a GPCR in a homogenous, non-imaging assay format using a technology developed by DiscoveRx called Enzyme Fragment Complementation (EFC) with beta-galactosidase (β-Gal) as the functional reporter. […] EA is fused to β-Arrestin and ED is fused to the GPCR of interest. When the GPCR is activated and β-arrestin is recruited to the receptor, ED and EA complementation occurs, restoring β-gal activity, which is measured using chemiluminescent PathHunter Detection Reagents.
Similar results were obtained when agonist and antagonist activity were assayed using cAMP signaling as the readout.

Assay [4] deals with T2, MOR (Homo sapiens, UniProt P35372). As to the kind of experiment: cell-based. As to conditions: EC20 morphine agonism of MOR; for EC50: RC50, β-arrestin; for Max. Response: β-arrestin.
In assay [5] the target is T2, MOR. As to the kind of experiment: cell-based. To be noted: EC20 morphine agonism of MOR; for EC50: RC50, cAMP; for Max. Response: cAMP.
The target in assay [6] is T2, MOR. In words: cell-based. As to conditions: EC20 Oxycodone agonism of MOR; for EC50: RC50, β-arrestin; for Max. Response: β-arrestin.
In assay [7] the target is T2, MOR. As to the kind of experiment: cell-based. As to conditions: EC20 Oxycodone agonism of MOR; for EC50: RC50, cAMP; for Max. Response: cAMP.
The mark [8] stands for this setting: maximal response for β-arrestin recruitment.
[9] abbreviates: β-arrestin recruitment, read-out: β-arr. EC50.
[10] abbreviates: adenylyl cyclase inhibition, read-out: cAMP EC50.
Where [11] appears, read: maximal response for adenylyl cyclase inhibition.
[12] abbreviates: β-arrestin, EC20 EM-1 agonism of MOR.
Setting [13] is: β-arrestin, EC20 EM-1 agonism of MOR, read-out: RC50 (the source's name).
The mark [14] stands for this setting: RC50, cAMP, EC20 EM-1 agonism of MOR.
The mark [15] stands for this setting: cAMP EC50, adenylyl cyclase inhibition.
Setting [16] is: maximal response, β-arrestin recruitment.
[17] abbreviates: maximal response, adenylyl cyclase inhibition.

T1 sequence (P35372 whole entry, the tested form may be a part): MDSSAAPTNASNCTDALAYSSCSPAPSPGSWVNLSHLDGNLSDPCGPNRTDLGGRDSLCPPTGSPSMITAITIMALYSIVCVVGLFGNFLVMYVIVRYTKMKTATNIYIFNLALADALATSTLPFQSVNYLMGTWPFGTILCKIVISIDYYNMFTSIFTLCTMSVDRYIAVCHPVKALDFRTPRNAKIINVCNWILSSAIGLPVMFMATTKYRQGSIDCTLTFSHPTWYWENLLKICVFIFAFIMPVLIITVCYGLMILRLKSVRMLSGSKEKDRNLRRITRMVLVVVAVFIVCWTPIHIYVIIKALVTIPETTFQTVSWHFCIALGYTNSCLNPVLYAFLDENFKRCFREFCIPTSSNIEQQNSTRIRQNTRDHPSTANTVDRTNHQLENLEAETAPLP
T2 sequence (P35372 whole entry): as the sequence (P35372 whole entry, the tested form may be a part) above
Chain of mu opioid receptor subtype OPRM1 (P35372 whole entry, the tested form may be a part): as above

Turning to `COc1ccc(C2C(C(F)(F)F)CCN2S(=O)(=O)c2ccc(Cl)cc2)cc1Br` (single isomer, unassigned) [Compound 108], the “allosteric activity for β-arrestin recruitment” value in assay [1] was “moderate positive allosteric effect”. Also, in assay [1] (setting [8]), the “β-arr Max. Resp.” value is recorded as “F (F represents a maximal response of > 60%)”. The EC50 in assay [1] (setting [9]) and in assay [2] (setting [10]) was more than 2.1 µM in each case. Also, the “allosteric activity for cAMP signaling” value in assay [2] is “moderate positive allosteric effect”. Further, in assay [2] (setting [11]), the “cAMP Max. Resp.” value is “E (E represents a maximal response of 40-60%)”. Also, in assay [3], the IC50 (in general, the concentration that inhibits the measured activity by half) is more than 25 µM.
As for `Fc1cnc(Cl)nc1N1CCCCC1c1cccc(C(F)(F)F)c1` (single isomer, unassigned) [compound 8], the “β-arr Max. Resp.” value in assay [1] (setting [8]) is recorded as “F (F represents a maximal response of > 60%)”. Moreover, the EC50 in assay [1] (setting [9]) was less than 0.7 µM; in assay [1] (setting [13]) it was 0.33 µM; in assay [2] (setting [14]), 0.84 µM; in assay [2] (setting [15]), 0.7 to 2.1 µM; in assay [4] it was 7.11 µM; in assay [5] it was 2 µM. Besides, the EC50 in assay [6] was found to be 12.9 µM; in assay [7], 1.91 µM. Also, the “Max. Response” value in assay [1] (setting [12]) turned out to be 213; in assay [2] (EC20 EM-1 agonism of MOR), 76; in assay [4], 487; in assay [5], 44; in assay [6], 343; in assay [7], 56. Besides, the “cAMP Max. Resp.” value in assay [2] (setting [11]) is “F (F represents a maximal response of > 60%)”.
For `COc1ccc(C2N(S(=O)(=O)c3ccc(Cl)cc3)CCC2(F)F)cc1Br` (single isomer, unassigned) [Compound 110], the “allosteric activity for β-arrestin recruitment” value in assay [1] is “moderate positive allosteric effect”. Further, in assay [1] (setting [8]), the “β-arr Max. Resp.” value is reported as “F (F represents a maximal response of > 60%)”. The EC50 in assay [1] (setting [9]) and in assay [2] (setting [10]) was more than 2.1 µM in each case. The “allosteric activity for cAMP signaling” value in assay [2] is “moderate positive allosteric effect”. The “cAMP Max. Resp.” value in assay [2] (setting [11]) was “F (F represents a maximal response of > 60%)”. Moreover, the IC50 in assay [3] was more than 25 µM.
Regarding `COc1ccc(C2C3CCC(C3)N2S(=O)(=O)c2ccc(Cl)cc2)cc1Br` (stereo not shown) [Compound 177], the “allosteric activity for β-arrestin recruitment” value in assay [1] is on record as “moderate positive allosteric effect”. The “β-arr Max. Resp.” value in assay [1] (setting [8]) is recorded as “F (F represents a maximal response of > 60%)”. Besides, the EC50 in assay [1] (setting [9]) and in assay [2] (setting [10]) was more than 2.1 µM in each case. In addition, in assay [2], the “allosteric activity for cAMP signaling” value is “moderate positive allosteric effect”. The “cAMP Max. Resp.” value in assay [2] (setting [11]) is given as “E (E represents a maximal response of 40-60%)”. For the same compound, the IC50 in assay [3] was more than 25 µM.
`COc1ccc(C2CC(C(F)(F)F)CN2S(=O)(=O)c2ccc(Cl)cc2)cc1Br` (single isomer, unassigned) [Compound 109]: the “allosteric activity for β-arrestin recruitment” value in assay [1] was “moderate positive allosteric effect”. In addition, the “β-arr Max. Resp.” value in assay [1] (setting [8]) is on record as “F (F represents a maximal response of > 60%)”. Also, the EC50 in assay [1] (setting [9]) is more than 2.1 µM; in assay [2] (setting [10]), less than 0.7 µM. Moreover, the “allosteric activity for cAMP signaling” value in assay [2] is “moderate positive allosteric effect”. Also, the “cAMP Max. Resp.” value in assay [2] (setting [11]) was “E (E represents a maximal response of 40-60%)”. Also, the IC50 in assay [3] was more than 25 µM.
Regarding `Fc1cnc(Cl)nc1N1CCCCC1c1cccc(C(F)(F)F)n1` (stereo not shown) [compound 123], the “β-arr Max. Resp.” value in assay [1] (setting [8]) was “F (F represents a maximal response of > 60%)”. In addition, the EC50 was 0.7 to 2.1 µM in assay [1] (setting [9]); 1.02 µM in assay [1] (setting [13]); 0.59 µM in assay [2] (setting [14]); less than 0.7 µM in assay [2] (setting [15]); 14.1 µM in assay [4]; more than 25 µM in assay [5]. The EC50 in assay [6] and in assay [7] was more than 25 µM each time. For the same compound, the “Max. Response” value was 190 in assay [1] (setting [12]); 43 in assay [2] (EC20 EM-1 agonism of MOR); 59 in assay [4]; 0 in assay [5]; 17 in assay [6]; 0 in assay [7]. For the same compound, the “cAMP Max. Resp.” value in assay [2] (setting [11]) is “E (E represents a maximal response of 40-60%)”.
In the case of `CN1CCN(c2nc(Cl)ncc2F)C(c2cccc(C(F)(F)F)c2)C1` (racemic) [Compound 282], in assay [1] (setting [8]), the “β-arr Max. Resp.” value is given as “F (F represents a maximal response of > 60%)”. Also, the EC50 in assay [1] (setting [9]) and in assay [2] (setting [10]) was 0.7 to 2.1 µM throughout. In addition, in assay [2] (setting [11]), the “cAMP Max. Resp.” value is on record as “D (D represents a maximal response of < 40%)”.
As for `Fc1ccc(Cl)cc1CN1C2CCC(C2)C1c1cccc(C(F)(F)F)n1` (stereo not shown) [compound 444], the “β-arr Max. Resp.” value in assay [1] (setting [16]) is on record as “F (F represents a maximal response of > 60%)”. For the same compound, the EC50 in assay [1] (setting [9]) and in assay [2] (setting [15]) was more than 2.1 µM in each case. Besides, the “cAMP Max. Resp.” value in assay [2] (setting [17]) is “D (D represents a maximal response of < 40%)”.
As for `Fc1cc(Cl)cc(CN2CCCCC2c2cccc(C(F)(F)F)n2)c1` (stereo not shown) [compound 164], the “β-arr Max. Resp.” value in assay [1] (setting [8]) is reported as “F (F represents a maximal response of > 60%)”. Besides, the EC50 is 0.7 to 2.1 µM in assay [1] (setting [9]) and less than 0.7 µM in assay [2] (setting [15]). Besides, the “cAMP Max. Resp.” value in assay [2] (setting [11]) is “E (E represents a maximal response of 40-60%)”.
The matching figures for `FC(F)(F)c1cccc(C2CCCCN2c2nccc(Cl)n2)c1` (stereo not shown) [compound 258]: “E (E represents a maximal response of 40-60%)”, more than 2.1 µM, more than 2.1 µM and “F (F represents a maximal response of > 60%)”.
Regarding `O=c1[nH]c2ccc(C3CCCCN3c3nc(Cl)ncc3F)cc2o1` (stereo not shown) [compound 279], in assay [1] (setting [8]), the “β-arr Max. Resp.” value is given as “D (D represents a maximal response of < 40%)”. In addition, the EC50 in assay [1] (setting [9]) and in assay [2] (setting [15]) was more than 2.1 µM each time. In addition, the “cAMP Max. Resp.” value in assay [2] (setting [11]) was “F (F represents a maximal response of > 60%)”.
Consider `Cc1cnc(N2CCCCC2c2cccc(C(F)(F)F)c2)nc1Cl` (stereo not shown) [compound 266], for which the “β-arr Max. Resp.” value in assay [1] (setting [8]) is listed as “E (E represents a maximal response of 40-60%)”. In addition, the EC50 in assay [1] (setting [9]) and in assay [2] (setting [15]) was more than 2.1 µM each time. Also, in assay [2] (setting [11]), the “cAMP Max. Resp.” value was “D (D represents a maximal response of < 40%)”.
As for `Fc1cnc(Cl)nc1N1CCCCC1c1cccc(Cl)c1` (stereo not shown) [compound 285], in assay [1] (setting [8]), the “β-arr Max. Resp.” value was “F (F represents a maximal response of > 60%)”. In addition, the EC50 was 0.7 to 2.1 µM in assay [1] (setting [9]) and more than 2.1 µM in assay [2] (setting [15]). Also, in assay [2] (setting [11]), the “cAMP Max. Resp.” value is given as “E (E represents a maximal response of 40-60%)”.
On the same counts, the results for `Fc1ccc(C2C(F)CCCN2c2nc(Cl)ncc2F)cc1Br` (stereo not shown) [compound 211] are “F (F represents a maximal response of > 60%)”, more than 2.1 µM, more than 2.1 µM and “E (E represents a maximal response of 40-60%)”.
On the same counts, the results for `Fc1cnc(Cl)nc1N1CCCCC1c1cnc2cnccn12` (stereo not shown) [compound 338] are “D (D represents a maximal response of < 40%)”, less than 0.7 µM, less than 0.7 µM and “D (D represents a maximal response of < 40%)”.
As for `COc1cccc(N2CCCCC2c2cccc(C(F)(F)F)n2)c1` (stereo not shown) [compound 455], in assay [1] (setting [16]), the “β-arr Max. Resp.” value is on record as “E (E represents a maximal response of 40-60%)”. The EC50 in assay [1] (setting [9]) and in assay [2] (setting [10]) was more than 2.1 µM in each case. Moreover, in assay [2] (setting [17]), the “cAMP Max. Resp.” value is “D (D represents a maximal response of < 40%)”.
`Fc1c(N2CCCCC2c2cccc(C(F)(F)F)c2)ccnc1Cl` (stereo not shown) [compound 402]: the “β-arr Max. Resp.” value in assay [1] (setting [8]) is recorded as “D (D represents a maximal response of < 40%)”. Moreover, the EC50 in assay [1] (setting [9]) and in assay [2] (setting [15]) was less than 0.7 µM in each case. In addition, the “cAMP Max. Resp.” value in assay [2] (setting [11]) is on record as “D (D represents a maximal response of < 40%)”.
For `COc1ccc(C2CCCCN2c2ncncc2F)cc1Br` (stereo not shown) [compound 233], the “β-arr Max. Resp.” value in assay [1] (setting [8]) is on record as “F (F represents a maximal response of > 60%)”. Further, the EC50 in assay [1] (setting [9]) and in assay [2] (setting [15]) was more than 2.1 µM in each case. For the same compound, the “cAMP Max. Resp.” value in assay [2] (setting [11]) is “F (F represents a maximal response of > 60%)”.
For the compound `COc1ccc(C2COCCN2S(=O)(=O)c2ccc(Cl)cc2)cc1Br` (racemic) [Compound 222], in assay [1] (setting [8]), the “β-arr Max. Resp.” value was “F (F represents a maximal response of > 60%)”. The EC50 was more than 2.1 µM in assay [1] (setting [9]) and 0.7 to 2.1 µM in assay [2] (setting [10]). The “cAMP Max. Resp.” value in assay [2] (setting [11]) was “D (D represents a maximal response of < 40%)”.
